From patent EP0309424A2, “New amidino derivatives” (ISTITUTO DE ANGELI S.p.A., priority 1987, dated 1989)
Structures can show the parent of a compound that is named as a salt.

Target: T1, muscarinic receptors of the cerebral cortex (Rattus norvegicus, UniProt P08482)
T1 construct: displacement of ^3H-pirenzepine from cerebral cortex homogenate; from tissue; host or cells: rat cerebral cortex homogenate
T1 sequence (P08482 1-460): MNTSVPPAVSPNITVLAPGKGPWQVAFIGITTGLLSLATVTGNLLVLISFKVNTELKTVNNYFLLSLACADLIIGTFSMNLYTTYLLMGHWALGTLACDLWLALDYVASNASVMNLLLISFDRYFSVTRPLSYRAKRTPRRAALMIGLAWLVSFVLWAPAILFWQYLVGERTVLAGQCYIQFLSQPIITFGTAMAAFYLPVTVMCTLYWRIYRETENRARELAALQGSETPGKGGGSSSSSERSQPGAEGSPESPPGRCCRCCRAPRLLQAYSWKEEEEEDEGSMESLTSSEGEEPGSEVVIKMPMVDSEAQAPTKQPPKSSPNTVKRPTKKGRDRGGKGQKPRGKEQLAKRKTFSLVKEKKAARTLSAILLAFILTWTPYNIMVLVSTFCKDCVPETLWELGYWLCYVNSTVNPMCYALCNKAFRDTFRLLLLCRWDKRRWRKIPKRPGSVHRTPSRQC
Test: Antimuscarinic activity (in vitro binding studies): displacement of 3H-pirenzepine from cerebral cortex homogenate
Set-up: species or system male CD-COOBBS rats
Settings: not given
Protocol: Antimuscarinic activity was examined by studying the displacement of ^3H-pirenzepine from cerebral cortex homogenate according to the procedure reported below: • The cerebral cortex donors were male CD-COOBBS rats, 220-250 g body weight. The homogenization process was carried out in a Potter-Evelhjem apparatus in the presence of Na^+/Mg^++ HEPES buffer; pH 7.4 (100 mM NaCI, 10 mM MgC12, 20 mM HEPES), by filtering the suspension through two layers of cheesecloth. Binding curves for the under study compounds were derived indirectly from competition experiments against 0.5 nM ^3H-pirenzepine labelling the muscarinic receptors of the cerebral cortex. 1 ml of the homogenate was incubated for 45 min at 30° C in the presence of a marker ligand and different concentrations of the cold ligand, conditions under which equilibrium was reached as determined by appropriate association experiments. The incubation was terminated by centrifugation (12,000 rpm for 3 min) at room temperature using an Eppendorf microcentrifuge. The resultant pellet was washed twice with 1.5 ml saline to remove the free radioactivity and it was allowed to drain for some hours. The tips of the tubes containing the pellet were cut off and 200 µl of tissue solubilizer (Lumasolve, Lumac) were added and left to stand overnight. Radioactivity was then counted after addition of 4 ml of liquid scintillation mixture (Dimilume/Toluene 1:10 v:v, Packard)
Non-specific binding avaraged less than 30%. KD values (dissociation constants) were obtained by non-linear regression analysis on the basis of a one binding site model with TOPFIT-pharmacokinetic programme package (G. HEINZEL, "Pharmacokinetics during drug development: data analysis and evaluation techniques" Eds. G. BOLZER and J.M. VAN ROSSUM; p. 207, G. Fisher, New York, 1982) after correction for the radioligand occupancy shift according to the equation: Ko = ICso/1 + *C/*KD, where "C and *KD represent the concentration and the dissociation constant of the radioligand used, respectively.

Row | Compound | Ki
1 | N=C(N)N1C2CCC1CC(OC(=O)C(CO)c1ccccc1)C2 (racemic) [Compound 1, N-guanyl-Noratropine] | 0.007 µM
2 | CC(=N)N1C2CCC1CC(OC(=O)C(CO)c1ccccc1)C2 (racemic) [Compound 64, N-iminoethyl-noratropine] | 0.0034 µM
3 | CC(=N)N1C2CC(OC(=O)C(CO)c3ccccc3)CC1C1OC12 (single isomer, unassigned; (-)) [Compound 65, (-)-N-iminoethyl-norscopolamine] | 0.002 µM

Same assay, conditions: competition against 0.5 nM 3H-pirenzepine, rat cerebral cortex homogenate, 45 min at 30° C, corrected for radioligand occupancy shift; read-out: Dissociation constants (KD) for 3H-pirenzepine binding

Row | Ki | Compound
4 | 0.017 µM | N=C(N)N1CCN(CC(O)(c2ccccc2)C2CCCCC2)CC1 (stereo not shown) [Compound 4, N-guanyl-N'-[(2-phenyl-2-cyclohexyl-2-hydroxy)-ethyl]-piperazine]
5 | 0.015 µM | N=C(N)N1CCC(OC(=O)C(c2ccccc2)c2ccccc2)CC1 [Compound 14, Benzeneacetic acid,a-phenyl-,1-guanyl-4-piperidinyl ester]
6 | 0.038 µM | N=C(N)N1CCC(CC(O)(c2ccccc2)c2ccccc2)CC1 [Compound 24, 2-[(N-guanyl-piperidin-4-yl)]-1,1-diphenyl-ethanol]
7 | 0.032 µM | CN=CN1CCC(=C(c2ccccc2)c2ccccc2)CC1 [Compound 28, Piperidine,4-(diphenylmethylene)-,1-[N-methyl-(iminomethyl)]]
8 | 0.0044 µM | N=CN1CCC(OC(=O)C(c2ccccc2)c2ccccc2)CC1 [Compound 34, Benzeneacetic acid,α-phenyl,1-(iminomethyl)-4-piperidinyl ester, hydrochloride]
9 | 0.012 µM | N=CN1CCN(CC(O)(c2ccccc2)C2CCCCC2)CC1 (stereo not shown) [Compound 35, N-iminomethyl-N'-[(2-hydroxy-2-phenyl-2-cydohexyl)-ethyl]-piperazine]
10 | 0.03 µM | CC(=N)N1CCN(CC(O)(c2ccccc2)C2CCCCC2)CC1 (stereo not shown) [Compound 62, N-(iminoethyl)-N'-[(2-hydroxy-2-phenyl-2-cyclohexyl)ethyl]-piperazine]
